{"source": "PubChem BioAssay AID1745844", "about": "(Carcinogenic Potency Database (CPDB), 2022)", "test_system": "rodent lifetime carcinogenesis bioassay, tumor incidence TD50", "assay": "carcinogenic potency in animals, long-term in vivo studies, CPDB compilation (AID 1745844)", "note": "Active and inactive are the calls of the source. How the calls were made is not given here."}
{"compound": "S=C([S-])NCCNC(=S)[S-].[Zn+2]", "values": [{"measurement": "TD50", "setting": "mouse, strain B6AKF1, females, oral dosing, site: any site (literature study), lesion: several types, types named in the paper, dosed 76 weeks, study length 76 weeks", "value": "1150 mg/kg/day (inactive)"}, {"measurement": "carcinogen call", "setting": "mouse, strain B6AKF1, females, oral dosing, site: liver, lesion: hepatoma, dosed 76 weeks, study length 76 weeks", "value": "negative (inactive)"}, {"measurement": "TD50", "setting": "mouse, strain B6AKF1, females, oral dosing, site: lung, lesion: adenoma, dosed 76 weeks, study length 76 weeks", "value": "1150 mg/kg/day (inactive)"}, {"measurement": "TD50", "setting": "mouse, strain B6AKF1, males, oral dosing, site: any site (literature study), lesion: several types, types named in the paper, dosed 76 weeks, study length 76 weeks", "value": "715 mg/kg/day (inactive)"}, {"measurement": "TD50", "setting": "mouse, strain B6AKF1, males, oral dosing, site: liver, lesion: hepatoma, dosed 76 weeks, study length 76 weeks", "value": "903 mg/kg/day (inactive)"}, {"measurement": "carcinogen call", "setting": "mouse, strain B6AKF1, males, oral dosing, site: lung, lesion: adenoma, dosed 76 weeks, study length 76 weeks", "value": "negative (inactive)"}, {"measurement": "TD50", "setting": "mouse, strain B6C3F1, females, oral dosing, site: any site (literature study), lesion: several types, types named in the paper, dosed 76 weeks, study length 76 weeks", "value": "1150 mg/kg/day (inactive)"}, {"measurement": "carcinogen call", "setting": "mouse, strain B6C3F1, females, oral dosing, site: liver, lesion: hepatoma, dosed 76 weeks, study length 76 weeks", "value": "negative (inactive)"}, {"measurement": "TD50", "setting": "mouse, strain B6C3F1, females, oral dosing, site: lung, lesion: adenoma, dosed 76 weeks, study length 76 weeks", "value": "1150 mg/kg/day (inactive)"}, {"measurement": "TD50", "setting": "mouse, strain B6C3F1, males, oral dosing, site: any site (literature study), lesion: several types, types named in the paper, dosed 76 weeks, study length 76 weeks", "value": "189 mg/kg/day (inactive)"}, {"measurement": "TD50", "setting": "mouse, strain B6C3F1, males, oral dosing, site: liver, lesion: hepatoma, dosed 76 weeks, study length 76 weeks", "value": "244 mg/kg/day (inactive)"}, {"measurement": "carcinogen call", "setting": "mouse, strain B6C3F1, males, oral dosing, site: lung, lesion: several types, types named in the paper, dosed 76 weeks, study length 76 weeks", "value": "negative (inactive)"}, {"measurement": "carcinogen call", "setting": "mouse, strain CFLP, females, in feed, site: any site (literature study), lesion: several types, types named in the paper, dosed 92 weeks, study length 94 weeks", "value": "negative (inactive)"}, {"measurement": "TD50", "setting": "mouse, strain CFLP, females, in feed, site: liver, lesion: hepatocellular adenoma, dosed 92 weeks, study length 94 weeks", "value": "1730 mg/kg/day (inactive)"}, {"measurement": "TD50", "setting": "mouse, strain CFLP, females, in feed, site: liver, lesion: hepatocellular carcinoma, dosed 92 weeks, study length 94 weeks", "value": "12600 mg/kg/day (inactive)"}, {"measurement": "TD50", "setting": "mouse, strain CFLP, females, in feed, site: lung, lesion: adenocarcinoma, dosed 92 weeks, study length 94 weeks", "value": "6490 mg/kg/day (inactive)"}, {"measurement": "carcinogen call", "setting": "mouse, strain CFLP, females, in feed, site: lung, lesion: adenoma, dosed 92 weeks, study length 94 weeks", "value": "negative (inactive)"}, {"measurement": "carcinogen call", "setting": "mouse, strain CFLP, males, in feed, site: any site (literature study), lesion: several types, types named in the paper, dosed 96 weeks, study length 96 weeks", "value": "negative (inactive)"}, {"measurement": "TD50", "setting": "mouse, strain CFLP, males, in feed, site: liver, lesion: hepatocellular adenoma, dosed 96 weeks, study length 96 weeks", "value": "420 mg/kg/day (inactive)"}, {"measurement": "TD50", "setting": "mouse, strain CFLP, males, in feed, site: liver, lesion: hepatocellular carcinoma, dosed 96 weeks, study length 96 weeks", "value": "3700 mg/kg/day (inactive)"}, {"measurement": "carcinogen call", "setting": "mouse, strain CFLP, males, in feed, site: lung, lesion: adenocarcinoma, dosed 96 weeks, study length 96 weeks", "value": "negative (inactive)"}, {"measurement": "TD50", "setting": "mouse, strain CFLP, males, in feed, site: lung, lesion: adenoma, dosed 96 weeks, study length 96 weeks", "value": "932 mg/kg/day (inactive)"}, {"measurement": "carcinogen call", "setting": "rat, strain Charles River CD (Sprague-Dawley), females, in feed, site: liver, lesion: hepatocellular adenoma, dosed 112 weeks, study length 112 weeks", "value": "negative (inactive)"}, {"measurement": "TD50", "setting": "rat, strain Charles River CD (Sprague-Dawley), females, in feed, site: liver, lesion: hepatocellular carcinoma, dosed 112 weeks, study length 112 weeks", "value": "1190 mg/kg/day (inactive)"}, {"measurement": "TD50", "setting": "rat, strain Charles River CD (Sprague-Dawley), females, in feed, site: pituitary gland, lesion: adenoma, dosed 112 weeks, study length 112 weeks", "value": "27.9 mg/kg/day (inactive)"}, {"measurement": "carcinogen call", "setting": "rat, strain Charles River CD (Sprague-Dawley), males, in feed, site: liver, lesion: hepatocellular adenoma, dosed 119 weeks, study length 119 weeks", "value": "negative (inactive)"}, {"measurement": "TD50", "setting": "rat, strain Charles River CD (Sprague-Dawley), males, in feed, site: liver, lesion: hepatocellular carcinoma, dosed 119 weeks, study length 119 weeks", "value": "1080 mg/kg/day (inactive)"}, {"measurement": "carcinogen call", "setting": "rat, strain Charles River CD (Sprague-Dawley), males, in feed, site: pituitary gland, lesion: adenoma, dosed 119 weeks, study length 119 weeks", "value": "negative (inactive)"}, {"measurement": "TD50", "setting": "rat, strain Mongrel, both sexes, by gavage, site: any site (literature study), lesion: several types, types named in the paper, dosed 95 weeks, study length 104 weeks", "value": 255, "unit": "mg/kg/day"}]}
{"compound": "Cc1ccc2c(-c3cccc(O)c3)nc(=O)n(C(C)C)c2c1", "values": [{"measurement": "carcinogen call", "setting": "mouse, strain Charles River CD1, females, in feed, site: liver, lesion: hemangiosarcoma, dosed 86 weeks, study length 86 weeks", "value": "negative (inactive)"}, {"measurement": "carcinogen call", "setting": "mouse, strain Charles River CD1, females, in feed, site: lung, lesion: alveolar/bronchiolar adenoma, dosed 86 weeks, study length 86 weeks", "value": "negative (inactive)"}, {"measurement": "TD50", "setting": "mouse, strain Charles River CD1, females, in feed, site: lung, lesion: alveolar/bronchiolar carcinoma, dosed 86 weeks, study length 86 weeks", "value": "4600 mg/kg/day (inactive)"}, {"measurement": "carcinogen call", "setting": "mouse, strain Charles River CD1, females, in feed, site: lung, lesion: hibernoma, malignant, dosed 86 weeks, study length 86 weeks", "value": "negative (inactive)"}, {"measurement": "carcinogen call", "setting": "mouse, strain Charles River CD1, males, in feed, site: liver, lesion: hemangiosarcoma, dosed 86 weeks, study length 86 weeks", "value": "negative (inactive)"}, {"measurement": "carcinogen call", "setting": "mouse, strain Charles River CD1, males, in feed, site: lung, lesion: alveolar/bronchiolar adenoma, dosed 86 weeks, study length 86 weeks", "value": "negative (inactive)"}, {"measurement": "TD50", "setting": "mouse, strain Charles River CD1, males, in feed, site: lung, lesion: alveolar/bronchiolar carcinoma, dosed 86 weeks, study length 86 weeks", "value": "8400 mg/kg/day (inactive)"}, {"measurement": "carcinogen call", "setting": "rat, strain Sandoz, females, in feed, site: liver, lesion: hepatocellular carcinoma, dosed 104 weeks, study length 104 weeks", "value": "negative (inactive)"}, {"measurement": "TD50", "setting": "rat, strain Sandoz, females, in feed, site: liver, lesion: neoplastic nodule, dosed 104 weeks, study length 104 weeks", "value": "2220 mg/kg/day (inactive)"}, {"measurement": "carcinogen call", "setting": "rat, strain Sandoz, females, in feed, site: mammary tissue, wider than the gland, lesion: fibroadenoma, dosed 104 weeks, study length 104 weeks", "value": "negative (inactive)"}, {"measurement": "TD50", "setting": "rat, strain Sandoz, males, in feed, site: adrenal gland, lesion: malignant tumor, dosed 104 weeks, study length 104 weeks", "value": "113 mg/kg/day (inactive)"}, {"measurement": "carcinogen call", "setting": "rat, strain Sandoz, males, in feed, site: liver, lesion: one or several types, types not named, dosed 104 weeks, study length 104 weeks", "value": "negative (inactive)"}]}
